From the supplement of paper PMC4862054

What was measured:
Settings in all cases: incubation time: 72 h
CAL-85-1 [1] = test: normalised viability (% of control), CellTiter-Blue; higher = more viable cells (about 100 = DMSO control)
Description: (§1)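 DSRT, CellTiter-Blue viability, 72 h incubation. Signal is normalised to DMSO and benzethonium chloride controls. Value is the normalised response at dose 6.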

CAL-51 [2] = test: as above
Description: as §1

HDQ-P1 [3] = test: as above
Description: as §1

MDA-MB-453 [4] = test: as above
Description: as §1

CAL-148 [5] = test: as above
Description: as §1

DU-4475 [6] = test: as above
Description: as §1

CAL-85-1 [7] = test: normalised response (% of control), CellTiter-Glo; higher = more viable cells (100 = DMSO, 0 = benzethonium chloride kill control)
Description: (§2)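 DSRT, 72 h incubation, CellTox Green / CellTiter-Glo readout. Signal is normalised to DMSO and benzethonium chloride controls. Value is the normalised response at the highest dose.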

CAL-51 [8] = test: as above
Description: as §2

HCC1937 [9] = test: as above
Description: as §2

MFM-223 [10] = test: as above
Description: as §2

HDQ-P1 [11] = test: as above
Description: as §2

MDA-MB-468 [12] = test: as above
Description: as §2

BT-549 [13] = test: as above
Description: as §2

SK-BR-3 = test: as above
Description: as §2

MDA-MB-231 [14] = test: as above
Description: as §2

HCC1599 [15] = test: as above
Description: as §2

MDA-MB-453 [16] = test: as above
Description: as §2

MDA-MB-436 [17] = test: as above
Description: as §2

CAL-148 [18] = test: as above
Description: as §2

DU-4475 [19] = test: as above
Description: as §2

BT-474 [20] = test: as above
Description: as §2

HCC1143 [21] = test: as above
Description: as §2

MCF-10A [22] = test: as above
Description: as §2

CAL-120 [23] = test: as above
Description: as §2

Hs578T [24] = test: as above
Description: as §2

CAL-85-1 [25] = test: normalised response (% of control), CellTox Green; higher = less cell death (100 = DMSO, 0 = benzethonium chloride kill control)
Summary of the method: (§3)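 Normalised signals at single concentrations make up the values. They come from breast cancer cell lines seeded (20 µl suspension) into 384-well plates with compound at 5 concentrations in 10-fold steps over a compound-specific 10,000-fold range, incubated 72 h, and read for CellTox Green fluorescence then CellTiter-Glo luminescence. Each plate was normalised to 0.1 % DMSO (100) and a positive kill control (0).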

CAL-51 [26] = test: as above
Summary of the method: as §3

HCC1937 [27] = test: as above
Summary of the method: as §3

MFM-223 [28] = test: as above
Summary of the method: as §3

HDQ-P1 [29] = test: as above
Summary of the method: as §3

MDA-MB-468 [30] = test: as above
Summary of the method: as §3

BT-549 [31] = test: as above
Summary of the method: as §3

MDA-MB-231 [32] = test: as above
Summary of the method: as §3

HCC1599 [33] = test: as above
Summary of the method: as §3

MDA-MB-453 [34] = test: as above
Summary of the method: as §3

MDA-MB-436 [35] = test: as above
Summary of the method: as §3

CAL-148 [36] = test: as above
Summary of the method: as §3

DU-4475 [37] = test: as above
Summary of the method: as §3

BT-474 [38] = test: as above
Summary of the method: as §3

HCC1143 [39] = test: as above
Summary of the method: as §3

MCF-10A [40] = test: as above
Summary of the method: as §3

CAL-120 [41] = test: as above
Summary of the method: as §3

Hs578T [42] = test: as above
Summary of the method: as §3

CC(C)Cn1cnc2c(N)nc3ccccc3c21 [Imiquimod] (300 nM)
normalised viability (CAL-85-1 [1]): 102% | normalised viability (CAL-51 [2]): 97.5% | normalised viability (HDQ-P1 [3]): 75.3% | normalised viability (MDA-MB-453 [4]): 103% | normalised viability (CAL-148 [5]): 96.5% | normalised viability (DU-4475 [6]): 80.5%

CN(N=O)C(=O)N[C@@H](C=O)[C@@H](O)[C@H](O)[C@H](O)CO [Streptozocin] (300 nM)
normalised viability (CAL-85-1 [1]): 106% | normalised viability (CAL-51 [2]): 108% | normalised viability (HDQ-P1 [3]): 85.4% | normalised viability (MDA-MB-453 [4]): 102% | normalised viability (CAL-148 [5]): 107% | normalised viability (DU-4475 [6]): 97.2%

CCC1(c2ccc(N)cc2)CCC(=O)NC1=O (stereo not drawn) [Aminoglutethimide] (300 nM)
normalised viability (CAL-85-1 [1]): 92.9% | normalised viability (CAL-51 [2]): 84.8% | normalised viability (HDQ-P1 [3]): 72.9% | normalised viability (MDA-MB-453 [4]): 89.6% | normalised viability (CAL-148 [5]): 104% | normalised viability (DU-4475 [6]): 93.4%

C=C(c1ccc(C(=O)O)cc1)c1cc2c(cc1C)C(C)(C)CCC2(C)C [Bexarotene] (300 nM)
normalised viability (CAL-85-1 [1]): 89.8% | normalised viability (CAL-51 [2]): 92.8% | normalised viability (HDQ-P1 [3]): 54.5% | normalised viability (MDA-MB-453 [4]): 71.4% | normalised viability (CAL-148 [5]): 92.8% | normalised viability (DU-4475 [6]): 116%

Cc1ccc(-n2nc(C(C)(C)C)cc2NC(=O)Nc2ccc(OCCN3CCOCC3)c3ccccc23)cc1 [Doramapimod] (300 nM)
normalised viability (CAL-85-1 [1]): 81.1% | normalised viability (CAL-51 [2]): 107% | normalised viability (HDQ-P1 [3]): 38% | normalised viability (MDA-MB-453 [4]): 105% | normalised viability (CAL-148 [5]): 91.3% | normalised viability (DU-4475 [6]): 96.3%

O=C1CCC(N2C(=O)c3ccccc3C2=O)C(=O)N1 (stereo not drawn) [Thalidomide] (300 nM)
normalised viability (CAL-85-1 [1]): 105% | normalised viability (CAL-51 [2]): 88.4% | normalised viability (HDQ-P1 [3]): 80.2% | normalised viability (MDA-MB-453 [4]): 103% | normalised viability (CAL-148 [5]): 117% | normalised viability (DU-4475 [6]): 99.6%

O=C(CCCCCCC(=O)Nc1ccc([C@H]2O[C@@H](CSc3nc(-c4ccccc4)c(-c4ccccc4)o3)C[C@@H](c3ccc(CO)cc3)O2)cc1)NO [Tubacin] (10000 nM)
normalised response (CAL-85-1 [7]): 18.4% | normalised response (CAL-51 [8]): 35.4% | normalised response (HCC1937 [9]): 32.3% | normalised response (MFM-223 [10]): 38.2% | normalised response (HDQ-P1 [11]): 68.6% | normalised response (MDA-MB-468 [12]): 17.2% | normalised response (BT-549 [13]): 42% | normalised response (SK-BR-3): 45.4% | normalised response (MDA-MB-231 [14]): 8.62% | normalised response (HCC1599 [15]): 13.7% | normalised response (MDA-MB-453 [16]): 6.07% | normalised response (MDA-MB-436 [17]): 57.5% | normalised response (CAL-148 [18]): 73.5% | normalised response (DU-4475 [19]): 70.7% | normalised response (BT-474 [20]): 13.9% | normalised response (HCC1143 [21]): 37.1% | normalised response (MCF-10A [22]): 52.4% | normalised response (CAL-120 [23]): 51.8% | normalised response (Hs578T [24]): 51.4% | normalised response (CAL-85-1 [25]): -3.19% | normalised response (CAL-51 [26]): 53.8% | normalised response (HCC1937 [27]): 54.5% | normalised response (MFM-223 [28]): 81.7% | normalised response (HDQ-P1 [29]): 102% | normalised response (MDA-MB-468 [30]): 98.2% | normalised response (BT-549 [31]): 71.7% | normalised response (MDA-MB-231 [32]): -21.5% | normalised response (HCC1599 [33]): 95.2% | normalised response (MDA-MB-453 [34]): 39% | normalised response (MDA-MB-436 [35]): 89.9% | normalised response (CAL-148 [36]): 81.1% | normalised response (DU-4475 [37]): 92.1% | normalised response (BT-474 [38]): 73.7% | normalised response (HCC1143 [39]): 27.7% | normalised response (MCF-10A [40]): 110% | normalised response (CAL-120 [41]): 75.1% | normalised response (Hs578T [42]): 85.2%
